{"source": "patent US20230181027A1", "about": "“METHODS AND MATERIALS FOR TREATING NEUROMYELITIS OPTICA SPECTRUM DISEASES” (Mayo Foundation for Medical Education and Research, priority 2019, published 2023)", "key": {"[1]": {"system": "microglia", "assay": "Iba1 immunostaining of spinal cord microglia (activation or depletion)", "type": "in vivo, mice", "description": "To examine microglial activation in our murine model of NMO, genetic labeling of microglia (CX3CR1^GFP/+) and immunostaining for the microglial marker Iba1 were used. […] In addition, NMO-IgG induced striking morphological transition of microglia, from “resting” ramified to “activated” bushy phenotype in time-dependent manner (FIG. 4C).\nMicroglial activation after NMO-IgG infusion indicates a potential role for microglia in NMO pathogenesis. To test this idea, microglia ablation approaches were utilized to directly examine the requirement of microglia in NMO-induced motor deficits. […].\nTM (Sigma) was administered as a solution in corn oil (Sigma) to mice over 4 weeks of age via i.p. injection. Animals received four doses of TM (150 mg kg^-1, 20 mg mL^-1 in corn oil) in 48 hour intervals. […] Mice administered with DT only (without TM) were used as control for all ablation experiments.\n(§1) Mice were deeply anaesthetized with isoflurane (5% in O2) and perfused transcardially with 20 mL PBS followed by 20 mL of cold 4% paraformaldehyde (PFA) in PBS. The spinal cord was removed and post-fixed with 4% PFA for 6 hours at 4° C. Samples were then transferred to 30% sucrose in PBS overnight. […] Cell counting and fluorescent signal intensity was quantified using ImageJ software (National Institutes of Health, Bethesda, MD).\nQuantification of Iba1 cells was done with ImageJ software (NIH Image). […]"}, "[2]": {"system": "microglia", "assay": "In situ microglial process chemoattraction assay (C3a-containing pipettes)", "type": "cell-based, mice", "method": "The cleavage of the complement component C3 produces two signaling molecules, C3a and C3b.\nHippocampal tissue slices ([…] thick) were prepared from P14-21 mice and incubated in imaging media. Microglia were visualized by GFP. For each image in the time-series, 15 z-steps spaced […] apart were collected per image ([…] total depth). Images were taken at 5 minute intervals for up to 1 hour on Scientifica 2-photon microscope with an X20 lens. Image processing and analysis was performed using NIH Image J software."}, "[3]": {"system": "murine model of NMO", "assay": "Rotarod test (latency to fall) in murine model of NMO with intrathecal NMO-IgG infusion", "type": "in vivo, mice", "description": "To investigate the cellular and molecular mechanisms underlying NMO pathology, a murine model was developed that utilizes IgG purified from NMO patient serum (NMO-IgG) or monoclonal AQP4-specific IgG. IgG collected from healthy individuals, or from healthy control subjects (control-IgG), or a control monoclonal IgG of irrelevant specificity was used in each experiment. NMO-IgG and control-IgG was purified by protein G adsorption (FIG. 1). An osmotic mini-pump delivery system loaded with either NMO-IgG, AQP4-IgG or control-IgG was placed subcutaneously and IgG was infused continuously into the spinal subarachnoid space via intrathecal catheter for 5 to 7 days (FIG. 2A). […] Gait analysis was also performed using ink tracking as described elsewhere (see, e.g., Zhang et al., J. Autoimmun. 53:67-77 (2014)). […] After 5 days of either […], 3 µg/µL, or 1 µg/µL NMO-IgG treatment, stride lengths decreased from an average of 5.7 cm to 2.6, 3.8, and 5.0 cm respectively (FIGS. 2C and 2D).\nA 3.5 cm polyurethane-silicone catheter (Alzet, CA) was inserted at the condylar canal to accesses the subarachnoid space at the cisterna magna and extended to lumbar level of spinal cord. Five days later an osmotic mini-pump delivery system, containing either NMO-IgG or control-IgG, was placed subcutaneously over the right shoulder. IgG was delivered continuously for 5-7 days (1-10 µg/day) (FIG. 2A).\nThe rotarod tests were performed using a five-lane Rotarod apparatus (Med Assocaites Inc). The rotarod speed started from 4 rounds per minute and uniformly accelerated to 40 rounds per minute over 5 minutes. Each mouse was tested for 3 times with 15 minute intervals. For gait analysis, mouse fore and hind limbs were covered by different color ink and allowed to walk freely across a narrow strip of paper. Stride length of hind limbs was reported as the mean of 5 sequential steps.\nMinocycline hydrochloride was dissolved in PBS with 1% DMSO at 30 µg/µL and mixed with 20 µg/µL NMO-IgG to make a mixture of 15 µg/µL minocycline and 10 µg/µL NMO-IgG. […]"}, "[4]": {"system": "microglia-astrocyte interaction", "assay": "Microglia-astrocyte interaction (Iba1/GFAP or CX3CR1-GFP/GFAP overlap) in L4 spinal cord", "type": "in vivo, mice", "conditions": "intrathecal, 150 µg/day, with NMO-IgG infusion", "description": "However, the question remains as to what cellular and molecular mechanisms underlie microglial function in NMO. […] Under control conditions, GFAP^+ astrocytes rarely overlap with Iba1^+ microglia. However, spatial overlapping was abundant after NMO-IgG exposure. […] Specifically, on average only 17% of microglia interact with astrocytes under control conditions while 65% of microglia overlap with astrocytes after NMO-IgG infusion.\nas §1, with “overnight. Sample sections ([…] in thickness) were prepared on gelatin-coated glass slide with a cryostat (Leica).” for “overnight.”"}, "[5]": {"system": "astrocyte complement C3", "assay": "Complement C3 and GFAP double staining of astrocytes in L4 spinal cord", "type": "in vivo, mice", "conditions": "minocycline co-infusion with NMO-IgG", "description": "Astrocytes exposed in culture to NMO-IgG increase their production and secretion of all complement components, except C1q, which is made by activated microglia (see, Howe et al., Glia 62:692-708 (2014)). […] In contrast, C3 expression was principally restricted to the lumen of blood vessels following control-IgG exposure. The percentage of C3^+ astrocytes in spinal cord of mice receiving NMO-IgG was ~5-fold higher than that of control-IgG recipients (FIG. 10A). C3 upregulation in astrocytes is independent of microglia, as a similar C3 increase was found after microglia ablation (FIG. 11).\nas §1, with “overnight. Sample sections ([…] in thickness) were prepared on gelatin-coated glass slide with a cryostat (Leica).” for “overnight.”"}}, "data": [{"molecule": "diphtheria toxin", "values": [{"measurement": "depletion of spinal microglia", "setting": "[1]; CX3CR1CreER/+:R26iDTR/+ mice after tamoxifen, 1 to 3 days after DT 50 µg/Kg i.p.", "value": "mostly depleted"}]}, {"molecule": "C3a: signaling molecule produced by cleavage of complement component C3", "values": [{"measurement": "time to induce microglial process chemotaxis", "setting": "[2]", "value": "≤ 30", "unit": "min"}]}, {"molecule": "FC(F)(F)c1ccc(CNc2ccc(Cc3c[nH]c4ncc(Cl)cc34)cn2)cn1", "note": "[PLX3397, Pexidartinib]", "values": [{"measurement": "motor function after NMO-IgG infusion (rotarod) versus control chow-treated group", "setting": "[3]; PLX3397 chow started 7 days before NMO-IgG infusion", "value": "significantly better"}, {"measurement": "depletion of microglia in the L4 spinal cord (Iba1+ cell density)", "setting": "[1]; PLX3397 chow, day 5 after NMO-IgG infusion, versus control chow", "value": "eliminated most of the microglia"}]}, {"molecule": "CN(C)c1ccc(O)c2c1C[C@H]1C[C@H]3[C@H](N(C)C)C(O)=C(C(N)=O)C(=O)[C@@]3(O)C(O)=C1C2=O", "note": "[minocycline]", "values": [{"measurement": "effect on NMO-IgG induced motor dysfunction in rotarod test", "setting": "[3]; intrathecal, 150 µg/day, co-infused with NMO-IgG", "value": "prevented the NMO-IgG induced motor dysfunction"}, {"measurement": "effect on motor impairment when given after onset", "setting": "[3]; systemic injection after 2 days of NMO-IgG infusion", "value": "reversed the motor impairment"}, {"measurement": "effect on microglia-astrocyte interaction", "setting": "[4]", "value": "reduced microglia-astrocyte interaction"}, {"measurement": "effect on NMO-IgG upregulation of astrocyte complement C3", "setting": "[5]", "value": "not altered"}]}]}
